17 molecules from patent publication US20250368666A1, “INDAZOLE COMPOUNDS” (TYRA BIOSCIENCES, INC., priority 2022, published 2025) can be followed below.

For orientation: Kd means the concentration at which binding is half-saturated.

Holding throughout (test): Kinase binding assay (kinase-tagged T7 phage, affinity beads, qPCR), Kd
In general terms: Real-time PCR tracks product formation cycle by cycle.

Assay [1] addresses T1, FGFR3 (V555M) (Homo sapiens, UniProt P22607, V555M).
T1 construct: made in house; host or cells: E. coli (BL21-derived), T7 phage
To be noted: V555M mutant; read-out: FGFR3 (V555M) (Kd nM). The procedure:
(§1) Kinase-tagged T7 phage strains were prepared in an E. coli host derived from the BL21 strain. E. coli were grown to log-phase and infected with T7 phage and incubated with shaking at 32° C. until lysis. The lysates were centrifuged and filtered to remove cell debris. Streptavidin-coated magnetic beads were treated with biotinylated small molecule ligands for 30 minutes at room temperature to generate affinity resins for kinase assays. The liganded beads were blocked with excess biotin and washed with blocking buffer SeaBlock (Pierce), 1% BSA, 0.05% Tween 20, 1 mM DTT to remove unbound ligand and to reduce non-specific binding.
(§2) Test compounds were prepared as 111× stocks in 100% DMSO. Kds were determined using an 11-point 3-fold compound dilution series with three DMSO control points. […] The compounds were then diluted directly into the assays such that the final concentration of DMSO was 0.9%. All reactions performed in polypropylene 384-well plate. Each was a final volume of 0.02 ml. […] The kinase concentration in the eluates was measured by qPCR.
(§3) Binding constants were calculated with a standard dose-response curve using the Hill equation: […]
(§4) The Hill Slope was set to −1. Curves were fitted using a non-linear least square fit with the Levenberg-Marquardt algorithm.

In assay [2] the target is T2, FGFR3 (Homo sapiens, UniProt P22607).
T2 construct: made in house; host or cells: E. coli (BL21-derived), T7 phage
The note with it: read-out: FGFR3 (Kd nM). The procedure: as §1, §2, §3, §4

Assay [3] has as its target T3, FGFR4 (Homo sapiens, UniProt P22455).
T3 construct: made in house; host or cells: E. coli (BL21-derived), T7 phage
To be noted: read-out: FGFR4 (Kd nM). The protocol: as §1, §2, §3, §4

Assay [4] has as its target T4, FGFR1 (Homo sapiens, UniProt P11362).
T4 construct: made in house; host or cells: E. coli (BL21-derived), T7 phage
The note with it: read-out: FGFR1 (Kd nM). The procedure:
as §1, §2, §3, §4

Assay [5] concerns the target T5, FGFR2 (Homo sapiens, UniProt P21802).
T5 construct: made in house; host or cells: E. coli (BL21-derived), T7 phage
The note with it: read-out: FGFR2 (Kd nM). The protocol: as §1, §2, §3, §4

T1 sequence (P22607 23-806 V555M): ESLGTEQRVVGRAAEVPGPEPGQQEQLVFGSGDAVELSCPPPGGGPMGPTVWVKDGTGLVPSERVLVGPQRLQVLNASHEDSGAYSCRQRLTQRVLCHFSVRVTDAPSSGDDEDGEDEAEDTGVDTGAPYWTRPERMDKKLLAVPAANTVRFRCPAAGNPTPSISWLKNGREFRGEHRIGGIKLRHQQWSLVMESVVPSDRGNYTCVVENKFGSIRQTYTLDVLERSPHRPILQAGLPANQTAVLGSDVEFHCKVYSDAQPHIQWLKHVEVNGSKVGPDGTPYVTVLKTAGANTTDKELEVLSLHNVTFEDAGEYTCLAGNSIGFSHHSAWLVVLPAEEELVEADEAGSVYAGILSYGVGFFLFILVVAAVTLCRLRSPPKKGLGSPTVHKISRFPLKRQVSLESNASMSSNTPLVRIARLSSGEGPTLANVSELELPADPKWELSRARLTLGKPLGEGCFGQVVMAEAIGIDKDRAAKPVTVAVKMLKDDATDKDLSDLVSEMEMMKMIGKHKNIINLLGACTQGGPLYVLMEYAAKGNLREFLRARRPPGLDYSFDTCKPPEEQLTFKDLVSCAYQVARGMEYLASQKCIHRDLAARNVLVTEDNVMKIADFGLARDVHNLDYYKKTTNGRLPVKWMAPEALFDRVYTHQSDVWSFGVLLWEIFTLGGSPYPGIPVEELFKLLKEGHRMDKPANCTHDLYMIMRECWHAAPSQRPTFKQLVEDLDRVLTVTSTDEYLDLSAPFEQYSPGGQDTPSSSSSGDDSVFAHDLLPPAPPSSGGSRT
T2 sequence (P22607 23-806): as the sequence (P22607 23-806 V555M) above, with M533V counted along it
T3 sequence (P22455 22-802): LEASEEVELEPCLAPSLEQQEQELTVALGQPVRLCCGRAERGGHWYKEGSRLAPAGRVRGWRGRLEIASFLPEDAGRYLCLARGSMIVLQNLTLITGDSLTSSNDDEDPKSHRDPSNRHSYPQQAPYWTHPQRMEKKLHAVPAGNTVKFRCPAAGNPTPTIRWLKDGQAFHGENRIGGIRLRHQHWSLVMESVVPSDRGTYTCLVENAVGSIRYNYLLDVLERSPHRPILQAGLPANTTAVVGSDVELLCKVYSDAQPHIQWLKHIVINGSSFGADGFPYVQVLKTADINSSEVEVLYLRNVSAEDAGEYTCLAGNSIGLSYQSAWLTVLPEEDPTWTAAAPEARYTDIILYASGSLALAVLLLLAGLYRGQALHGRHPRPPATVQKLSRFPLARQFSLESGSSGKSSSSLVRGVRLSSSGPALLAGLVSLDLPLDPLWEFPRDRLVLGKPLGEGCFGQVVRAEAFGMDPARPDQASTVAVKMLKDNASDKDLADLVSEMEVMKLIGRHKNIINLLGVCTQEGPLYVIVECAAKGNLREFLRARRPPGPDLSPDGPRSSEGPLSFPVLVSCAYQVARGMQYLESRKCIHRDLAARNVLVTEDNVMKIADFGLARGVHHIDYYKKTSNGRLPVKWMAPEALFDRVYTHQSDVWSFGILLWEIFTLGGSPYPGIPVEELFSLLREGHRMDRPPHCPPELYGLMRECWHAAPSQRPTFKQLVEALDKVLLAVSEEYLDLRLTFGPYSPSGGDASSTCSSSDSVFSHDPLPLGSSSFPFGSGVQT
T4 sequence (P11362 22-822): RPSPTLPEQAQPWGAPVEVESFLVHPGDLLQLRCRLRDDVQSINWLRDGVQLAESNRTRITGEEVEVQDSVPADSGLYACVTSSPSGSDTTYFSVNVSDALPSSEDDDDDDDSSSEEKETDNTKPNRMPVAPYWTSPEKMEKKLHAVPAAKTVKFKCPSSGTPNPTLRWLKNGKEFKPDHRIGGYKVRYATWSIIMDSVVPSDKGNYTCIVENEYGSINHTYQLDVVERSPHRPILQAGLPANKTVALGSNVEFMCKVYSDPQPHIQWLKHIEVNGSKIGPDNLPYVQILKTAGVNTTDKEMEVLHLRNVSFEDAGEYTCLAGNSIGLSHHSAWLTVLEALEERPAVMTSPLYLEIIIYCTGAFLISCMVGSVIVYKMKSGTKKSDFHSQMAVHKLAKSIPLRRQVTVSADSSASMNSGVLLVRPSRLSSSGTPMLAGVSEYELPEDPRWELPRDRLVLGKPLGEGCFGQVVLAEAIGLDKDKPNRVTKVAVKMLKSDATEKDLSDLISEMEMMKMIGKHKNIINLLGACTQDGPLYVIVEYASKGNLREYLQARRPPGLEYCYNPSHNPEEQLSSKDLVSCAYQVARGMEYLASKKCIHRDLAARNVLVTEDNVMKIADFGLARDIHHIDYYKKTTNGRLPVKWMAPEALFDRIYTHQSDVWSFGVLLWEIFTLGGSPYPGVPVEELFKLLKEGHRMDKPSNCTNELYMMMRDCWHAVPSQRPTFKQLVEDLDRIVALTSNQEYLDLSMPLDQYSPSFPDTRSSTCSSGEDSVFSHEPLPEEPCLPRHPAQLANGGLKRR
T5 sequence (P21802 22-821): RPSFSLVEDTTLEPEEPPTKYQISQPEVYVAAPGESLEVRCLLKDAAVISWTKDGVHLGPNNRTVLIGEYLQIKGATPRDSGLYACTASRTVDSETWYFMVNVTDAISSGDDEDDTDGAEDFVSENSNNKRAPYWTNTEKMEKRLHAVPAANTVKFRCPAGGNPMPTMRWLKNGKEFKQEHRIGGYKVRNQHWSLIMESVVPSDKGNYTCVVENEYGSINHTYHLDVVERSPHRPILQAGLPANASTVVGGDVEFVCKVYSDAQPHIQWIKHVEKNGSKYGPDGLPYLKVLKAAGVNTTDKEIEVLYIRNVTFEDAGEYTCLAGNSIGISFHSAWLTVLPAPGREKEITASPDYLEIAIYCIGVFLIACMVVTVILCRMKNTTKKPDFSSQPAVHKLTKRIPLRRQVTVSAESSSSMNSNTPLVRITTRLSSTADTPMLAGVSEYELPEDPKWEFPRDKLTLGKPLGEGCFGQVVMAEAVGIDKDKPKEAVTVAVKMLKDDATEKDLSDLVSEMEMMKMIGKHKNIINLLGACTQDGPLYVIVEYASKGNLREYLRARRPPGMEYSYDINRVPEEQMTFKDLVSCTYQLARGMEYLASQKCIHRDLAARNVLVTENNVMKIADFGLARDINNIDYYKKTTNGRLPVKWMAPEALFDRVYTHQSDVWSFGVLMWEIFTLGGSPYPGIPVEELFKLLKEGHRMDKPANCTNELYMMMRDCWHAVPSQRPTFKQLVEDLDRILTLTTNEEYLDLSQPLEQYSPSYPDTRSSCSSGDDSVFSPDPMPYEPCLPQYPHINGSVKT

In the case of `C[C@@H](Oc1cc2c(-c3ccc(N4CC(C)(CN5CCCC5)C4)nc3)n[nH]c2cc1F)c1c(Cl)cncc1Cl` [Example 188, (R)-5-(1-(3,5-dichloropyridin-4-yl)ethoxy)-6-fluoro-3-(6-(3-methyl-3-(pyrrolidin-1-ylmethyl)azetidin-1-yl)pyridin-3-yl)-1H-indazole], the Kd in assay [1], in assay [2], in assay [3], in assay [4] and in assay [5] was 1 to 50 nM throughout.

Turning to `C[C@@H](Oc1cc2c(-c3cnc(N4CC(C)(N(C)C)C4)c(F)c3)n[nH]c2cc1F)c1c(Cl)cncc1Cl` [Example 130, 1-[5-[5-[(1R)-1-(3,5-dichloro-4-pyridyl)ethoxy]-6-fluoro-1H-indazol-3-yl]-3-fluoro-2-pyridyl]-N,N,3-trimethyl-azetidin-3-amine], the dissociation constant (Kd) in assay [1], in assay [2], in assay [3], in assay [4] and in assay [5] was 1 to 50 nM throughout.

For the molecule `C[C@@H](O)CNC1(C)CN(c2ncc(-c3n[nH]c4ccc(O[C@H](C)c5c(Cl)cncc5Cl)c(F)c34)cc2F)C1` [Example 169, (R)-1-((1-(5-(5-((R)-1-(3,5-dichloropyridin-4-yl)ethoxy)-4-fluoro-1H-indazol-3-yl)-3-fluoropyridin-2-yl)-3-methylazetidin-3-yl)amino)propan-2-ol], the Kd in assay [1] is 1 to 50 nM; in assay [2], 50 to 300 nM; in assay [3], 50 to 300 nM; in assay [4], 300 to 1000 nM; in assay [5], greater than 1000 nM.

Take `C=CCNC1(C)CN(c2ncc(-c3n[nH]c4ccc(O[C@H](C)c5c(Cl)cncc5Cl)cc34)cn2)C1` [Example 234, (R)-N-ally1-1-(5-(5-(1-(3,5-dichloropyridin-4-yl)ethoxy)-1H-indazol-3-yl)pyrimidin-2-yl)-3-methylazetidin-3-amine]: the Kd in assay [1], in assay [2], in assay [3], in assay [4] and in assay [5] was 1 to 50 nM in each case.

In the case of `C[C@@H](Oc1ccc2[nH]nc(-c3cnc(N4CC(C)(CP(C)(C)=O)C4)c(F)c3)c2c1)c1c(Cl)cncc1Cl` [Example 121, (R)-((1-(5-(5-(1-(3,5-dichloropyridin-4-yl)ethoxy)-1H-indazol-3-yl)-3-fluoropyridin-2-yl)-3-methylazetidin-3-yl)methyl)dimethylphos-phine oxide], the Kd in assay [1], in assay [2], in assay [3], in assay [4] and in assay [5] was 1 to 50 nM in each case.

Turning to `C[C@@H](Oc1ccc2[nH]nc(-c3cnc(N4CC(C)(NCCO)C4)c(F)c3)c2c1F)c1c(Cl)cncc1Cl` [Example 175, (R)-2-((1-(5-(5-(1-(3,5-dichloro-pyridin-4-yl)ethoxy)-4-fluoro-1H-indazol-3-yl)-3-fluoropyridin-2-yl)-3-methylazetidin-3-yl)amino)ethan-1-ol], the dissociation constant (Kd) in assay [1] was 50 to 300 nM; in assay [2], 50 to 300 nM; in assay [3], 50 to 300 nM; in assay [4], greater than 1000 nM; in assay [5], greater than 1000 nM.

For `C[C@@H](Oc1ccc2[nH]nc(-c3cnc(N4CC(C)(NCC5CC5)C4)nc3)c2c1)c1c(Cl)cncc1Cl` [Example 235, (R)-N-(cyclo-propylmethyl)-1-(5-(5-(1-(3,5-dichloropyridin-4-yl)ethoxy)-1H-indazol-3-yl)pyrimidin-2-yl)-3-methylazetidin-3-amine], the Kd in assay [1], in assay [2], in assay [3], in assay [4] and in assay [5] was 1 to 50 nM throughout.

As to `CNC1(C)CN(c2ncc(-c3n[nH]c4ccc(O[C@H](C)c5c(Cl)cncc5Cl)c(F)c34)cc2F)C1` [Example 197, (R)-1-(5-(5-(1-(3,5-dichloropyridin-4-yl)ethoxy)-4-fluoro-1H-indazol-3-yl)-3-fluoropyridin-2-yl)-N,3-dimethylazetidin-3-amine], the Kd in assay [1] is 1 to 50 nM; in assay [2], 50 to 300 nM; in assay [3] it was 50 to 300 nM; in assay [4], 300 to 1000 nM; in assay [5], greater than 1000 nM.

Regarding `C[C@@H](Oc1cc2c(-c3cnc(N4CC(C)(N5CCC5)C4)c(F)c3)n[nH]c2cc1F)c1c(Cl)cncc1Cl` [Example 163, 3-[6-[3-(azetidin-1-yl)-3-methyl-azetidin-1-yl]-5-fluoro-3-pyridyl]-5-[(1R)-1-(3,5-dichloro-4-pyridyl)ethoxy]-6-fluoro-1H-indazole], the Kd in assay [1], in assay [2], in assay [3], in assay [4] and in assay [5] was 1 to 50 nM each time.

For `C[C@@H](Oc1ccc2[nH]nc(-c3ccc(N4CC(C)(OCCO)C4)nc3)c2c1)c1c(Cl)cncc1Cl` [Example 92, (R)-2-((1-(5-(5-(1-(3,5-dichloropyridin-4-yl)ethoxy)-1H-indazol-3-yl)pyridin-2-yl)-3-methylazetidin-3-yl)oxy)ethan-1-ol], the Kd in assay [1], in assay [2], in assay [3], in assay [4] and in assay [5] was 1 to 50 nM throughout.

Turning to `C[C@@H](Oc1cc2c(-c3cnc(N4CC(C)(CP(C)(C)=O)C4)c(F)c3)n[nH]c2cc1F)c1c(Cl)cncc1Cl` [Example 193, (R)-((1-(5-(5-(1-(3,5-dichloro-pyridin-4-yl)ethoxy)-6-fluoro-1H-indazol-3-yl)-3-fluoropyridin-2-yl)-3-methylazetidin-3-yl)methyl)dimethyl-phosphine oxide], the dissociation constant (Kd) in assay [1], in assay [2], in assay [3], in assay [4] and in assay [5] was 1 to 50 nM each time.

Turning to `C[C@@H](Oc1ccc2[nH]nc(-c3ccc(N4CC(C)(N5CCCC5)C4)nc3)c2c1F)c1c(Cl)cncc1Cl` [Example 177, (R)-5-(1-(3,5-dichloropyridin-4-yl)ethoxy)-4-fluoro-3-(6-(3-methyl-3-(pyrrolidin-1-yl)azetidin-1-yl)pyridin-3-yl)-1H-indazole], the Kd in assay [1] lay within 1 to 50 nM; in assay [2] it was 1 to 50 nM; in assay [3], 50 to 300 nM; in assay [4], 50 to 300 nM; in assay [5] it was 300 to 1000 nM.

Take `C[C@@H](Oc1ccc2[nH]nc(-c3ccc(N4CC(C)(NCCO)C4)nc3)c2c1F)c1c(Cl)cncc1Cl` [Example 192, (R)-2-((1-(5-(5-(1-(3,5-dichloro-pyridin-4-yl)ethoxy)-4-fluoro-1H-inda-zol-3-yl)pyridin-2-yl)-3-methylazetidin-3-yl)amino)ethanol]: the dissociation constant (Kd) in assay [1] lay in the range of 1 to 50 nM; in assay [2] it was 50 to 300 nM; in assay [3], 300 to 1000 nM; in assay [4], 300 to 1000 nM; in assay [5], 300 to 1000 nM.

Turning to `C[C@@H](Oc1cc2c(-c3cnc(N4CC(C)(CN5CCCC5)C4)c(C#N)c3)n[nH]c2cc1F)c1c(Cl)cncc1Cl` [Example 317, (R)-5-(5-(1-(3,5-dichloropyridin-4-yl)ethoxy)-6-fluoro-1H-indazol-3-yl)-2-(3-methyl-3-(pyrrolidin-1-ylmethyl)azetidin-1-yl)nicotinonitrile], the Kd in assay [1] lay within 1 to 50 nM; in assay [2], 1 to 50 nM; in assay [3], 1 to 50 nM; in assay [4], 50 to 300 nM; in assay [5], 50 to 300 nM.

As to `CC(C)NC1(C)CN(c2ccc(-c3n[nH]c4ccc(O[C@H](C)c5c(Cl)cncc5Cl)c(F)c34)cn2)C1` [Example 173, (R)-1-(5-(5-(1-(3,5-dichloropyridin-4-yl)ethoxy)-4-fluoro-1H-indazol-3-yl)pyridin-2-yl)-N-isopropyl-3-methylazetidin-3-amine], the equilibrium dissociation constant (Kd) in assay [1] lay in the range of 1 to 50 nM; in assay [2] it was 50 to 300 nM; in assay [3] it was 300 to 1000 nM; in assay [4], 300 to 1000 nM; in assay [5] it was 300 to 1000 nM.

In the case of `CC(C)NC1(C)CN(c2ncc(-c3n[nH]c4ccc(O[C@H](C)c5c(Cl)cncc5Cl)c(F)c34)cc2C#N)C1` [Example 319, (R)-5-(5-(1-(3,5-dichloropyridin-4-yl)ethoxy)-4-fluoro-1H-indazol-3-yl)-2-(3-(isopropylamino)-3-methylazetidin-1-yl)nicotinonitrile], the Kd in assay [1] is 300 to 1000 nM; in assay [2] it was greater than 1000 nM; in assay [3] it was 50 to 300 nM; in assay [4], greater than 1000 nM; in assay [5], greater than 1000 nM.

As to “3-[6-[3-(cyclobutoxy)- 3-methyl-azetidin-1- yl]-3-pyridy1]-5-[(1R)- 1-(3,5-dichloro-2- methyl-4- pyridyl)ethoxy]-1H- indazole [Example 75]”, the Kd in assay [1] is 1 to 50 nM; in assay [2], 1 to 50 nM; in assay [3], 50 to 300 nM; in assay [4] it was 300 to 1000 nM; in assay [5], 50 to 300 nM.
